One data set relates to P388. Type of data set: in vivo, mice. As to conditions: highest non-toxic dose. The procedure: (§1) Cross-resistance between various agents was measured in murine leukemia cell lines. P388/CPT is a camptothecin-resistant leukemia that was established in vitro (Biochem. Pharmacol., 45: 339 (1993)) and maintained in vivo by i.p. passages in DBA2 female mice. The chemosensitivity of i.p. P388/CPT was evaluated with i.v. P388 sensitive reference drugs with different mechanisms of action. Antitumor efficacy was determined at the highest non-toxic dose as percent increase in life span (ILS), where:
(§2) ILS=100×[(median day of death (MDD) of treated mice)−(MDD control mice)][…]
(§3) A minimal level of activity equals an ILS of greater than 26%. P388/CPT was found resistant to camptothecin s.c. and CPT-11, but sensitive to both doxorubicin and etoposide. […] Table II tabulates the results from this study.

Another data set has as its system P388/CPT. Nature of the data set: Percent increase in life span, camptothecin-resistant i.p. P388/CPT leukemia (Example 2). The data set is classed as in vivo, mice. The settings on record: for Comment (chemosensitivity of P388/CPT): minimal activity = ILS greater than 26%; for % ILS: i.p. P388/CPT, highest non-toxic dose. The procedure: as §1, §2, §3
The test system of data set [1] is Pancreatic Ductal Adenocarcinoma P03.
Protocol: In the first arm, three doses of CPT were given orally on days six through nine, twice a day. In the second arm, three doses of doxorubicin were given intravenously on days six and nine. In the combination third arm, five dosage levels of CPT-11 were administered orally on days six through nine, twice a day, with administration of five dosage levels of doxorubicin intravenously on days six and nine. This third arm illustrated an example of semi-simultaneous administration. In all three arms, the two daily administrations of CPT-11 were given four hours apart.
Data set [2] relates to MA16/C, sc. Nature of the data set: Dose response combination study, MA16/C sc (Example 5).
Protocol: (§6) The effectiveness of irinotecan combination chemotherapy methods was tested in a dose response study in a murine tumor model. Three arms were evaluated for tolerance and efficacy. Tolerance was measured by mortality, body weight loss at nadir, host recovery time, and combination toxicity index. Efficacy end points for solid tumor models were tumor growth delay (T/C), log10 cell kill (LCK, defined above), tumor regressions (i.e., complete remission (CR),or partial remission (PR)).
(§7) The LD10 for the single agent was obtained by plotting the toxicity of that agent and the dosage in mg/kg as a log probit graph. Subsequently, the CTI LD10 was obtained by plotting as a log probit graph the observed lethality and the corresponding CTI calculated as the sum of the fraction of the LD10 of each single agent.
The test system of another data set is P03. As to conditions: P03 (B6D2F1), twice daily; for LCK: at optimal total dose. The procedure: (§4) This efficacy may be quantified, for example by the log10 cell kill, which is determined by the following formula: […]
(§5) in which T−C represents the time taken for the cells to grow, which is the mean time in days for the tumors of the treated group (T) to reach a predetermined value (1 g for example) and the tumors of the control group (C) to reach the same value, and Td represents the time in days needed for the volume of the tumors in the control group to double. […] A product is considered to be active if the log10 cell kill is greater than or equal to 0.7. A product is considered to be very active if the log10 cell kill is greater than 2.8.

For the next data set, the system named is C51. The settings on record: C51 (BALB/c), days 5, 7, 9, 13, 15, twice daily; for LCK: at optimal total dose. The procedure: as §4, §5
The test system of another data set is GOS. As to conditions: GOS (B6D2F1); for LCK: at optimal total dose. The procedure: as §4, §5
Another data set concerns MA16/C. The settings on record: MA16/C (C3H/HeN); for Optimal Total Dose: days 5-9; for LCK: days 5-9, at optimal total dose. The procedure: as §4, §5
A further data set relates to C26. The settings on record: C26 (BALB/c); for LCK: at optimal total dose. The procedure:
as §4, §5

Another data set has as its system P03, sc. Nature of the data set: Dose response combination study, P03 sc (Example 5). Type of data set: in vivo, murine. The procedure:
Three arms were evaluated for tolerance and efficacy.

A short description of data set [3]: Tolerance of oral and i.v. irinotecan in tumor bearing mice (Example 1). As to conditions: oral and intravenous. Type of data set: in vivo.
The test system of data set [4] is MA16/C, sc. As to conditions: mouse, in vivo.
Protocol: as §6, §7
[5] abbreviates: CPT-11 p.o. 38.8 mg/kg/adm, days 6-9 (twice/day).
Setting [6] is: CPT-11 p.o. 62.5 mg/kg/adm, days 6-9 (twice/day).
[7] abbreviates: CPT-11 p.o. 100.8 mg/kg/adm, days 6-9 (twice/day).
Where [8] appears, read: Doxorubicin i.v. 3.8 mg/kg/adm, days 6, 9.
The mark [9] stands for this setting: Doxorubicin i.v. 6.2 mg/kg/adm, days 6, 9.
The mark [10] stands for this setting: Doxorubicin i.v. 10.0 mg/kg/adm, days 6, 9.

Read-outs that look alike come from different tables or passages of the source. Marks after values point to notes of the source that are not given here.

Turning to `CC[C@@]1(O)C(=O)OCc2c1cc1n(c2=O)Cc2cc3ccccc3nc2-1` [CPT, camptothecin], the “% ILS” value with P388 (P388, agent s.c.) was 82%; in the data set with P388/CPT (agent s.c.), 0%. The “Comment (chemosensitivity of P388/CPT)” value in the data set on P388/CPT (agent s.c.) was “resistant”.

In the case of `CCc1c2c(nc3ccc(OC(=O)N4CCC(N5CCCCC5)CC4)cc13)-c1cc3c(c(=O)n1C2)COC(=O)[C@]3(O)CC` [CPT-11, irinotecan], the Comments entry in [1] (setting [5]) is reported as “Inactive”; in data set [1] (setting [6]), “Active”; in data set [1] (setting [7]), “HDT active”. The Log10 cell kill is on record as 0.5 in data set [1] (setting [5]), 1.2 in [1] (setting [6]) and 1.3 in [1] (setting [7]). Moreover, the T-C in [1] (setting [5]) amounted to 4.0 days; in data set [1] (setting [6]), 9.3 days; in [1] (setting [7]) it was 9.8 days. Further, the “Time for median tumor to reach 1000 mg” value in data set [1] (setting [5]) is 20.4 days; in data set [1] (setting [6]), 25.7 days; in data set [1] (setting [7]), 26.2 days. Besides, the LCK with MA16/C, sc [2] (CPT-11 p.o. single agent at HNTD 198.5 mg/kg, MA16/C sc, days 3-7) was 2.0; in the data set on P03 (i.v.) it was 3.2†; with P03 (oral), 3.4†; in the data set on C51 (i.v.), 3.0; in the data set on C51 (oral) it was 2.5; in the data set with GOS (i.v., days 3, 5, 7 twice daily), 2.2. Besides, the LCK with GOS (oral, days 3-7, twice daily) turned out to be 2.1; in the data set with MA16/C (i.v.), 2.6; with MA16/C (oral), 2.7; with C26 (i.v., twice daily), 0.7; in the data set on C26 (oral, days 3-7 twice daily) it was 0.9; with P03, sc (CPT-11 p.o. single agent at HNTD 806 mg/kg, days 6-9 twice daily), 1.3. Besides, the “HNTD Dose” value turned out to be 198.5 mg/kg with MA16/C, sc [2] (CPT-11 p.o. single agent, MA16/C sc, days 3-7) and 806 mg/kg in the data set with P03, sc (CPT-11 p.o. single agent, days 6-9 twice daily). The “% ILS” value with P388 (P388, agent i.v.) turned out to be 91%; with P388/CPT (agent i.v.) it was 0%. The “Optimal Total Dose” value with P03 (i.v.) is on record as 346.2 mg/kg; with P03 (oral), 900 mg/kg; in the data set with C51 (i.v.), 615 mg/kg; in the data set with C51 (oral), 845 mg/kg; in the data set on GOS (i.v., days 3, 5, 7 twice daily) it was 346.2 mg/kg; with GOS (oral, days 3-7, twice daily), 900 mg/kg. Further, the “Optimal Total Dose” value with MA16/C (i.v.) came out at 130.5 mg/kg; in the data set on MA16/C (oral), 230.5 mg/kg; with C26 (i.v., twice daily) it was 228 mg/kg; in the data set with C26 (oral, days 3-7 twice daily), 558 mg/kg. Further, the “tumor free survivor on day 120” value in the data set with P03 (i.v., 346.2 mg/kg total) was “†1/5 tumor free survivor on day 120”; in the data set with P03 (oral, 900 mg/kg total) it was “†1/5 tumor free survivor on day 120”. The compound further displayed a nadir in [3] (days post last administration) of 7 days. The compound further displayed a recovery in data set [3] (days post nadir (i.e., 12 days post first administration)) of 5 days. For the same compound, the body weight loss in [3] (similar tolerance) was found to be 8.5%. Besides, in the data set with P388/CPT (agent i.v.), the “Comment (chemosensitivity of P388/CPT)” value is “resistant”.

Take `COc1cccc2c1C(=O)c1c(O)c3c(c(O)c1C2=O)C[C@@](O)(C(=O)CO)C[C@@H]3O[C@H]1C[C@H](N)[C@H](O)[C@H](C)O1` [doxorubicin]: in [1] (setting [8]), the Comments entry is listed as “Active”, the Log10 cell kill was found to be 1.0, the T-C came to 7.5 days and the “Time for median tumor to reach 1000 mg” value is on record as 23.9 days. In data set [1] (setting [9]), the Comments entry was “Active”, the Log10 cell kill was 1.2, the T-C stood at 9.5 days and the “Time for median tumor to reach 1000 mg” value came to 25.9 days. Further, in data set [1] (setting [10]), the Comments entry is “HDT highly active” and the tumor free survivors entry is “*There are no values presented because 4 out of 5 animals tested were tumor free survivors”. Moreover, the “% ILS” value in the data set on P388 (P388, agent i.v.) was 122%. For the same compound, the tumor free survivors in the data set with P03, sc (doxorubicin i.v. single agent at HNTD 20.0 mg/kg, days 6, 9) is 4/5. Moreover, in the data set with P03, sc (doxorubicin i.v. single agent, days 6, 9), the “HNTD Dose” value is on record as 20.0 mg/kg. In the data set with P388/CPT (agent i.v.), the “Comment (chemosensitivity of P388/CPT)” value is reported as “sensitive” and the “% ILS” value is 180%.

With `COc1cc([C@@H]2c3cc4c(cc3[C@@H](O[C@@H]3O[C@@H]5CO[C@@H](C)O[C@H]5[C@H](O)[C@H]3O)[C@H]3COC(=O)[C@H]23)OCO4)cc(OC)c1O` [etoposide], in the data set with MA16/C, sc [2] (mouse, in vivo), the LCK turned out to be 2.2. In the data set on P388 (P388, agent i.v.), the “% ILS” value was found to be 127%. In addition, in the data set on P388/CPT (agent i.v.), the “Comment (chemosensitivity of P388/CPT)” value is given as “sensitive” and the “% ILS” value is 121%. In addition, the “HNTD Dose” value in the data set with MA16/C, sc [4] is recorded as 90.0 mg/kg.

These data come from patent publication US20030195161A1, “Composition comprising camptothecin or a camptothecin derivative and a topoisomerase II inhibitor for the treatment of cancer” (priority 2000, published 2003).
